Experimental findings from patent publication US4730068A, “Tumor retarding (1,2-diphenyl-ethylenediamine)-platinum(II)-complexes” (Asta-Werke Aktiengesellschaft, priority 1985, dated 1988) are described below.

For series [1], the system named is DMBA-induced hormone dependent rat mammary carcinoma. Nature of the series: DMBA-induced hormone dependent mammary carcinoma of the rat. Type of series: in vivo. The following applies: 3×6.5 mg/kg body weight/week. As to the method:
Mouse leukemia P388, hormone independent human breast cancer cell line MDA-MB 231, hormone dependent human breast cancer cell line MCF7, hormone dependent mouse mammary carcinoma MXT, DMBA induced hormone dependent rat mammary carcinoma (DMBA is dimethylbenz[a]-anthracene).
For example on the mammary cancer of the rat, which was induced by 7, 12-dimethylbenz [a]-anthracene (DMBA), with the compound of Example 18 at a dosage of 3×6.5 mg/kg body weight/week there was determined with 88% of the tumors a complete remission. In the testing on the hormone independent human mammary tumor cell line MDA-MB 231 the compounds of the invention show for example in vitro in concentrations between 10^-5 and 10^-7 moles/liter a 50% inhibition of the growth of this cell line. The inhibition of [^3 H]-thymidine incorporation is of the same order of magnitude. The compounds of the invention act on the lymphocytic leukemia P388 (mouse) for example in dosages between 10 and 50 mg/kg (intraperitoneal application).

Another series in a line: water solubility. Type of series: physicochemical.

In the case of `NC(c1c(Cl)cc(O)cc1Cl)C(N)c1c(Cl)cc(O)cc1Cl.[Cl-].[Cl-].[Pt+2]` (stereo not drawn) [Example 18, meso-1,2-bis(2,6-dichloro-4-hydroxyphenyl)-ethylenediamine-dichloro-platinum(II)], in series [1], the “tumors with complete remission” value worked out at 88%.
Consider “Diaquo-meso-1,2-bis(2,6-dichloro-4-hydroxyphenyl)-ethylene-diamine-platinum(II)-sulfate [Example 34]”, for which the solubility in water result in the series “water solubility” is given as “soluble in water”.
